From publication PMC8955829, “Drug Discovery of New Anti-Inflammatory Compounds by Targeting Cyclooxygenases” (Pharmaceuticals, 2022)
Several values for one entry are separate records, joined by “and”; a condition that tells them apart may be missing. Equal values may be shown once.

How the values were obtained:
rat stomach = test: Histopathological examination of rat stomach / ulcerogenic effect; assay type: in vivo; settings: single dose 20 mg/kg orally
Procedure: Compounds 1–3 were examined for ulcerogenic effects in the rat stomach after showing anti-inflammatory advantages in a rat paw test. Rats were deprived for 24 h at 25 °C with a 12 h light/dark cycle. Indomethacin was used as a control. All compounds were given in a single dose of 20 mg/kg orally. After 24 h, the rats were slaughtered, and their stomachs were removed and washed with normal saline. Binocular magnification was used to inspect each group’s stomachs for the existence of a gastric lesion on the mucosa. Following that, the stomachs were kept in 10% w/v formalin for histological investigation, as previously described.

Raw264.7 cells = test: In vitro cytotoxicity, WST-1 assay; assay type: cell-based, mouse; settings: 1 µM, 24 h, presence or absence of LPS (1 ug/mL)
Procedure: Raw264.7 cells were used to test the effects of compounds 1, 2, and 3 on cell viability and proliferation. Raw264.7 cells were treated for 24 h in a 96-well plate with compounds (1 µM) in the presence or absence of LPS (1 ug/mL). WST1 reagent was added to each well after treatment and incubated for an additional 2 h. Following that, the OD450/620 ratio was determined. […] However, all compounds had no effect on WST1 values or cell morphology in Raw264.7 cells. Raw264.7 cells in a 96-well plate were treated with our compounds (1 uM) in the presence or absence of LPS (1 ug/mL) for 24 h. After treatment, the WST1 reagent was added into each well and incubated for an additional 2 h. After that, OD450/620 was measured.
Dulbecco’s modified Eagle’s minimum essential medium containing 5% heat-inactivated fetal bovine serum was used to maintain Raw264.7 cells (ATCC). Raw264.7 cells ([…]) in a 96-well plate were treated for 24 h with the indicated compounds at 1 µM or vehicle (DMSO) in the presence or absence of LPS (1 µg/mL) to detect cell viability based on mitochondrial activity. WST-1 solution (Dojindo) was then added to each well and incubated at 37 °C for an additional 2 h. According to a previous study, cell viability was determined using the difference in absorbance at 450 and 620 nm as an indicator [37].

[1] = tested on: carrageenan-induced rat paw edema; test: Carrageenan-induced paw edema in rats; assay type: in vivo; settings: 10 mg/kg orally; for rat paw edema size: evaluated for 5 h, Figure 3; for rat paw edema: after 1 h of dosing
From the text: The carrageenan-induced paw edema model was used to evaluate the compounds’ anti-inflammatory activity. Only carrageenan was given to the control animals. The treatment effect was tracked by observing the improvement of rat paw edema in response to drug administration. Carrageenan injections caused rat paws to grow from 0.3 cm to 0.8 cm in size.
Following in vitro testing, three compounds with the highest selectivity against COX-2 were chosen for in vivo investigations utilizing the rat paw edema assay. After subcutaneous carrageenan injection into the rodent’s paw, plasma extravasation, tissue proliferation, plasma protein release, and neutrophilic extravasation, all of which are caused by arachidonic acid digestion, produced inflammation. Following the carrageenan infusion, the main phase lasted 2 h. The following process is remodeling, which takes 5 h and begins at the 3rd h. The main stage is distinguished by the appearance of histamine and serotonin. The development of prostaglandins, proteases, and lysosomes causes the second stage of edema. Adult male albino rats weighing 120–150 g were divided into seven groups, each with seven rats, and kept at 25 °C with a 12-h light/dark cycle. Subplantar injection of 0.2 mL of 1% carrageenan solution in 0.9 percent saline into the right hind paw of rats was used to induce swelling and inflammation. To determine the inflammation generated by carrageenan, the Vernier Caliper was used to measure the thickness of rat paws before and after injection. […] Paw edema was measured at 0, 0.5, 1, 2, 3, 4, and 5 h after the drug was administered. The edema inhibition was calculated by calculating the difference in thicknesses between the treated and control groups.

rat paw = test: Histopathological examination of rat paw (H&E, Masson's trichrome); assay type: in vivo; settings: carrageenan-treated rats
Procedure: The rats’ paws were collected and washed in a saline solution after the end of rat paw experiment. Specimens were fixed in 10% natural formalin for 2 days before being washed overnight with running water. The cleaned samples were dehydrated in ethyl alcohol at increasing percentages, starting with 70% and ending with absolute alcohol. The samples were cleaned by immersing them in xylol for 2 h. For 3 h at 37 °C, the cleared samples were placed in a sealed jar containing 50% paraffin in xylol. The samples were then soaked in melting paraffin for 2 h at 48 °C before being blocked in hard paraffin and sliced into 5-micron slices. The sections were stained with hematoxylin and eosin (H&E) and Masson’s trichrome. Sections were mounted with Canada balsam and covered with a coverslip in preparation for histological examination.

COX-2 = target: T1, COX-2 (Homo sapiens, UniProt P35354); test: COX-2 inhibitor screening assay kit (Cayman); assay type: biochemical; settings: for IC50: three separate experiments
T1 construct: purchased Cayman Chemical (Ann Arbor, MI, USA)
T1 sequence (P35354 18-604): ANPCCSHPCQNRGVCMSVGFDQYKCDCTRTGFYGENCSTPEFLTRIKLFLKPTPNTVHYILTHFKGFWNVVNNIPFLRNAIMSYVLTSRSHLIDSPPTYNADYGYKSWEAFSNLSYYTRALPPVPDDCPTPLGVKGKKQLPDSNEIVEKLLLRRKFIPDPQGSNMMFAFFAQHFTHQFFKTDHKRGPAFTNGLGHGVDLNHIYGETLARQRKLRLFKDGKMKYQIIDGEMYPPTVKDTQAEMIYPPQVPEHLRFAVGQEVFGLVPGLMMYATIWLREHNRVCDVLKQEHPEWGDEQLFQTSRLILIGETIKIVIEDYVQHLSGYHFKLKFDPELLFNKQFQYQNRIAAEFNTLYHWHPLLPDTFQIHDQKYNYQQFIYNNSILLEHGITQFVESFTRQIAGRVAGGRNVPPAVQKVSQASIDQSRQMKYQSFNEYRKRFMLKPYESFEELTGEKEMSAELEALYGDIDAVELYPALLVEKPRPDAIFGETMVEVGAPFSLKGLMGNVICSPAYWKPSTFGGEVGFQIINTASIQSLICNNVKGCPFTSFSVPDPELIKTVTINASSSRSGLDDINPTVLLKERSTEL
Procedure: The test chemicals’ capacity to inhibit the conversion of arachidonic acid to prostaglandin was determined. In test tubes, 25 mM Tris–HCl, pH 8.0, containing 5 mM EDTA, phenol, and 1 mM hematin, was added. The test compounds were dissolved in dimethyl sulfoxide and added in concentrations ranging from 0.005–200 µM. Dimethyl sulfoxide alone was applied to control test containers. COX-1 or COX-2 enzymes were added to test tubes and preincubated for 10 min at 37 °C. The arachidonic acid substrate was added, and the tubes were incubated at 37 °C for 2 min. The compound immunochemical assay was used to calculate the amount of prostaglandin produced. Three separate experiments were used to calculate the IC50 values. The selectivity index was calculated as follows:(1) Selectivity index=IC50COX−1/IC50COX−2

Cc1cccc2[nH]c(C3CCCN(C(=O)c4ccccc4NCC(=O)O)C3)nc12 (stereo not drawn) [Compound 1, [(2-{[3-(4-methyl-1H-benzimidazol-2-yl)piperidin-1-yl]carbonyl}phenyl)amino]acetic acid]
rat stomach collagen deposition, Masson's Trichrome (rat stomach; 10× magnification): normal collagen deposition
rat stomach histopathology, H&E (rat stomach; 10× magnification): normal gastric layers
rat stomach collagen deposition, Masson's Trichrome (rat stomach; 40× magnification): normal collagen deposition
rat stomach histopathology, H&E (rat stomach; 40× magnification): absence of any signs of an inflammatory reaction
effect on WST1 values (cell viability) and cell morphology (Raw264.7 cells): non-cytotoxic
rat paw edema size [1]: significantly reduced rat paw size
rat paw histopathology, H&E: edema and inflammatory cell infiltration (rat paw): marked improvement in the degree of edema and the inflammatory cell infiltration
rat paw collagen deposition, Masson's Trichrome stain (rat paw; 10× magnification): slight collagen deposition
rat paw histopathology, H&E (rat paw; 10× magnification): significant decrease in the dermal thickness, inflammatory reaction in the deep dermis (black star), and moderate improvements in edema
rat paw histopathology, H&E (rat paw; 40× magnification): slight inflammatory reaction (black star) and edema

CCOC(=O)c1cn(-c2cc(C#N)ccc2O)cc(Oc2ccccc2)c1=O [Compound 2, ethyl 1-(5-cyano-2-hydroxyphenyl)-4-oxo-5-phenoxy-1,4-dihydropyridine-3-carboxylate]
rat stomach collagen deposition, Masson's Trichrome (rat stomach; 10× magnification): slight collagen deposition
rat stomach histopathology, H&E (rat stomach; 10× magnification): normal gastric layers
rat stomach collagen deposition, Masson's Trichrome (rat stomach; 40× magnification): slight collagen deposition
rat stomach histopathology, H&E (rat stomach; 40× magnification): absence of any signs of an inflammatory reaction
effect on WST1 values (cell viability) and cell morphology (Raw264.7 cells): non-cytotoxic
rat paw edema size [1]: significantly reduced rat paw size
rat paw collagen deposition, Masson's stain (rat paw): lowest
rat paw histopathology, H&E: edema and inflammatory cell infiltration (rat paw): marked anti-inflammatory effect and a pronounced decline in edema and inflammatory cell invasion
rat paw collagen deposition, Masson's Trichrome stain (rat paw; 10× magnification): slight collagen deposition
rat paw histopathology, H&E (rat paw; 10× magnification): substantial decrease in both the inflammatory reaction (black star) and edema
rat paw histopathology, H&E (rat paw; 40× magnification): slight inflammatory reaction (black star) and edema

O=C(O)[C@H]1C[C@@H](C(=O)NC2CC2)CN(C(=O)c2ccc3[nH]nnc3c2)C1 [Compound 3]
rat stomach collagen deposition, Masson's Trichrome (rat stomach): mild increase in collagen deposition
rat stomach collagen deposition, Masson's Trichrome (rat stomach; 10× magnification): significant collagen deposition
rat stomach histopathology, H&E (rat stomach; 10× magnification): slight degeneration of gastric layers
rat stomach collagen deposition, Masson's Trichrome (rat stomach; 40× magnification): significant collagen deposition
rat stomach histopathology, H&E (rat stomach; 40× magnification): absence of any signs of an inflammatory reaction
SI (selectivity index = IC50 COX-1/IC50 COX-2) (COX-2): 194.9 and 194.91
IC50 (COX-2): 0.06 ± 0.003 µM
rat paw edema size [1]: significantly reduced rat paw size
rat paw histopathology, H&E: edema and inflammatory cell infiltration (rat paw): weaker action than compounds 1 and 2 manifested by a moderate increase in cell infiltration and edema
rat paw collagen deposition, Masson's Trichrome stain (rat paw; 10× magnification): significant collagen deposition
rat paw histopathology, H&E (rat paw; 10× magnification): significant decrease in the degree of inflammatory reaction (black star) and a moderate decrease in edema
rat paw histopathology, H&E (rat paw; 40× magnification): moderate inflammatory reaction (black star) and edema

COc1ccc(CN(Cc2ccc(F)cc2)CC2CCCO2)cc1CO (stereo not drawn) [Compound 4]
SI (selectivity index = IC50 COX-1/IC50 COX-2) (COX-2): 36.3
IC50 (COX-2): 0.21 ± 0.01 µM

COc1cccc(-c2nn(-c3ccccc3)cc2CN(C)CCc2cn[nH]c2)c1 [Compound 5]
SI (selectivity index = IC50 COX-1/IC50 COX-2) (COX-2): 132.64
IC50 (COX-2): 0.08 ± 0.009 µM

O=C(O)CC1COCCN1Cc1cccc(-c2ccccn2)c1 (stereo not drawn) [Compound 6]
SI (selectivity index = IC50 COX-1/IC50 COX-2) (COX-2): 190.88
IC50 (COX-2): 0.06 ± 0.075 µM

O=C(O)COc1ccc(Cl)cc1C1CC(=O)Nc2cc3[nH]ncc3cc21 (stereo not drawn) [Compound 7]
SI (selectivity index = IC50 COX-1/IC50 COX-2) (COX-2): 95.068
IC50 (COX-2): 0.097 ± 0.015 µM

O=C(O)Cc1ccccc1Nc1c(Cl)cccc1Cl [Diclofenac, reference compound]
rat paw edema [1]: dramatically reduced rat paw edema

COc1ccc2c(c1)c(CC(=O)O)c(C)n2C(=O)c1ccc(Cl)cc1 [Indomethacin, reference compound]
rat stomach collagen deposition, Masson's Trichrome (rat stomach): mild increase in collagen deposition
rat stomach collagen deposition, Masson's Trichrome (rat stomach; 10× magnification): significant collagen deposition
rat stomach histopathology, H&E (rat stomach; 10× magnification): slight degeneration of gastric layers
rat stomach collagen deposition, Masson's Trichrome (rat stomach; 40× magnification): collagen deposition
rat stomach histopathology, H&E (rat stomach; 40× magnification): absence of any signs of an inflammatory reaction
rat paw edema [1]: dramatically reduced rat paw edema
rat paw collagen deposition, Masson's Trichrome stain (rat paw; 10× magnification): slight collagen deposition
rat paw histopathology, H&E (rat paw; 10× magnification): significant decrease in the degree of inflammatory reaction (black star) and a moderate decrease in edema
rat paw histopathology, H&E (rat paw; 40× magnification): slight inflammatory reaction (black star) and edema
